Consider 6 molecules from patent US4263325A, “β-Receptor blocking compounds and treatment of cardiovascular disorders therewith” (priority 1979, dated 1981).

In assay [1] the target is T1, cardiac β-receptors (Felis catus, UniProt Q9TST6).
T1 construct: All compounds were thereby tested in anaeshtetized cats; from tissue; host or cells: heart of the living, reserpinized, anaesthetized cat
Kind of assay: β-blockade of isoprenaline heart rate response, reserpinized anaesthetized cat. It counts as in vivo. As to conditions: iv, i.v. test compound, isoproterenol 0.1 μg/kg i.v., dose reducing response to 50 percent. The procedure: (§1) The agents of the present invention were tested as regards their biological properties. All compounds were thereby tested in anaeshtetized cats (males and females weighing 2.5-3.5 kg) pretreated with reserpine (5 mg/kg body-weight administered intramusculary) about 16 hours before the experiments. The animals were pretreated with reserpine in order to eliminate the endogenous sympathetic control of heart rate and vascular smooth muscle tone. The cats were anaesthetized with pentobarbital (30 mg/kg bodyweight administered i.p. ) and artificially ventilated with room air. A bilateral vagotomy was performed in the neck. Blood pressure was obtained from a cannulated carotid artery and heart rate was registered from a cardiotachometer, triggered by the electrocardiogram (ECG). Vascular resistance in one hind leg was recorded by an autoperfusion technique. Intrinsic beta mimetic activity on the heart was seen as increased heart rate after drug administration. The test compounds were given intravenously in logarithmically increasing doses. Before the first dose and between each of the following doses (0.012-51.2 μmol/kg) of the test compound a dose of isoproterenol (0.1 μg/kg) was injected intravenously. Blockade of the heart rate and vascular resistance response to isoproterenol was calculated for each dose and expressed as percent decrease of the response obtained when isoproterenol was injected before any dose of the test compound. Percent blockade was then plotted against the logarithm of the dose. ED50 values i.e. doses producing a reduction of the original response to isoproterenol to 50 percent were estimated from these dose-response curves. At the end of each experiment high doses of isoprenaline were given in order to obtain the maximal heart rate response.

For assay [2], the target named is T2, vascular β-receptors (Felis catus, UniProt Q9TST5).
T2 construct: All compounds were thereby tested in anaeshtetized cats; from tissue; host or cells: hind-leg vasculature of the living, reserpinized, anaesthetized cat (autoperfused)
T2 sequence (Q9TST5 whole entry, the tested form may be a part): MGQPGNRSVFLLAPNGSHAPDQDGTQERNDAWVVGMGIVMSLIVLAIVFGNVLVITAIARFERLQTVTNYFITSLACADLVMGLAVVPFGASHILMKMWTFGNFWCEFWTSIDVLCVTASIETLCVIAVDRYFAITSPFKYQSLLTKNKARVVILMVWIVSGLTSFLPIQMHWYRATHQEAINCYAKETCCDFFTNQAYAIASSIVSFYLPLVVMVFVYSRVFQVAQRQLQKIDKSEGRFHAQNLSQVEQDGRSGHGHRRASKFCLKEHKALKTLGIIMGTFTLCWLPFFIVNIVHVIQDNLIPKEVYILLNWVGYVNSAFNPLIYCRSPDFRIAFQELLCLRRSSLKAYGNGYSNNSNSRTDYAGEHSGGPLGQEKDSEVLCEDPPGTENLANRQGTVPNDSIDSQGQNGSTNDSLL
Kind of assay: β-blockade of isoprenaline peripheral (vascular) resistance response, reserpinized anaesthetized cat, autoperfused hind leg. It counts as in vivo. As to conditions: iv, i.v. test compound, isoproterenol 0.1 μg/kg i.v., dose reducing response to 50 percent. The procedure: as §1

Assay [3] addresses T1, cardiac β-receptors. Kind of assay: Intrinsic beta mimetic activity on the heart (increase of heart rate), reserpinized anaesthetized cat. It counts as in vivo. The following applies: i.v.; for Intrinsic activity Δbeats/min: increase of heart rate after drug; for Intrinsic activity % of isoprenaline: maximal heart rate response obtained with high doses of isoprenaline. The procedure: as §1

The target in assay [4] is T3, α-receptors (Rattus norvegicus, UniProt P43140).
T3 construct: from tissue; host or cells: isolated rat vas deferens
T3 sequence (P43140 1-466): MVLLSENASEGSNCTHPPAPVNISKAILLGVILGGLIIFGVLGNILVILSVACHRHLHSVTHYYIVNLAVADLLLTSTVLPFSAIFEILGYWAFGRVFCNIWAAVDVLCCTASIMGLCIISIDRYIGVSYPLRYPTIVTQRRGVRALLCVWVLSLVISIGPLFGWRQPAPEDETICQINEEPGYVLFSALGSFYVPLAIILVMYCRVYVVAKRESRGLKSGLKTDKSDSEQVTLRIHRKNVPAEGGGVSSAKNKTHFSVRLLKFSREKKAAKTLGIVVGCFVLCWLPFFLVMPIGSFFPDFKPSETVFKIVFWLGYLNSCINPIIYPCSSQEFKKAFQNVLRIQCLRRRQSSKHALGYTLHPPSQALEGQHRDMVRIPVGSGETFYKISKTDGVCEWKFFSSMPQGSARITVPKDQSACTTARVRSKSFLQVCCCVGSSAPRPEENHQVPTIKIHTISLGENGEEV
Kind of assay: α-receptor blocking activity in isolated rat vas deferens (inhibition of noradrenaline contraction). The following applies: noradrenaline as agonist, high pA2 = high α-receptor blocking activity. The procedure:
α-receptor blocking activity was tested in isolated rat vas deferens. Noradrenaline administered to the organ bath induces a contraction in vas deferens by activating α-receptors. The ability of the test compounds to inhibit this noradrenaline response was studied. The α-receptor blocking activity was expressed as pA2 values. pA2 is defined as the negative logarithm of the concentration of an antagonist (in our case the test compounds) which leads to the fact that the dose of the agonist (in our case noradrenaline) has to be doubled in order to obtain the same effect of the agonist as that obtained without the antagonist present. Thus a high pA2 value indicates a high α-receptor blocking activity of a compound.

Structures are written as SMILES.

T1 sequence (Q9TST6 whole entry): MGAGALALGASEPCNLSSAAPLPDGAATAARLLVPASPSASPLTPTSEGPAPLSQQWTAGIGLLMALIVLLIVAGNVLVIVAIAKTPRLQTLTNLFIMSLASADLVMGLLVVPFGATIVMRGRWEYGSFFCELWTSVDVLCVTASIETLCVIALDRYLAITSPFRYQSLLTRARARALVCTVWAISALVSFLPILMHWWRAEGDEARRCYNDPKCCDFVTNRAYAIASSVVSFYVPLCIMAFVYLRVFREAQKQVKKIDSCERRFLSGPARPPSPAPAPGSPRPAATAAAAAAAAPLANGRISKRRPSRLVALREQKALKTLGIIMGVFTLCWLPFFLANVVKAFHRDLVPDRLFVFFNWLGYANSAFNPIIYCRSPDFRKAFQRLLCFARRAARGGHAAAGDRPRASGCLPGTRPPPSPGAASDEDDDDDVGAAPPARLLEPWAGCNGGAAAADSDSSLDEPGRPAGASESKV

`CCCc1ccccc1OCC(O)CNCCOc1ccc(O)cc1` (centres unmarked) [C3H7; pOH, 3-[2-(4-hydroxyphenoxy)-ethylamino]-1-o-propylphenoxy-propanol-2] displayed an ED50 in assay [1] of 0.02 µmol/kg. For the same molecule, the 50% effect level in assay [2] (ED50) was put at a dose of 0.02 µmol/kg. In addition, in assay [3], the “Intrinsic activity Δbeats/min” value is listed as 0 beats/min and the “Intrinsic activity % of isoprenaline” value is 0 % of isoprenaline. In assay [4], the Kb is 126 nM.

Consider `COc1ccccc1OCCNCC(O)COc1ccccc1C` (centres unmarked) [CH3; 2-OCH3, 3-[2-(2methoxyphenoxy)-ethylamino]-1-o-methylphenoxy-propanol-2], for which the ED50 is 4.5 µmol/kg in assay [1] and 11 µmol/kg in assay [2]. In assay [3], the “Intrinsic activity Δbeats/min” value is on record as 8 beats/min. Besides, the “Intrinsic activity % of isoprenaline” value in assay [3] was 8 % of isoprenaline. The same molecule showed a Kb in assay [4] of 100 nM.

`Cc1ccccc1OCC(O)CNCCOc1ccccc1O` (centres unmarked) [CH3; 2-OH, 3-[2-(2-hydroxyphenoxy)-ethylamino]-1-o-methylphenoxy-propanol-2] registered an ED50 in assay [1] of 0.6 µmol/kg. This molecule also showed an ED50 in assay [2] of 17 µmol/kg. Also, in assay [3], the “Intrinsic activity Δbeats/min” value came out at 30 beats/min and the “Intrinsic activity % of isoprenaline” value is 29 % of isoprenaline. The molecule further had a Kb in assay [4] of 1000 nM.

Consider `COc1ccc(OCCNCC(O)COc2ccccc2C)cc1OC` (centres unmarked) [CH3; 3,4-diOCH3, 3-[2-(3,4-dimethoxyphenoxy)-ethylamino]-1-o-methylphenoxy-propanol-2], for which the ED50 in assay [1] stood at 1.5 µmol/kg. Moreover, the ED50 in assay [2] was 5.8 µmol/kg. Moreover, in assay [3], the “Intrinsic activity Δbeats/min” value amounted to 8 beats/min and the “Intrinsic activity % of isoprenaline” value is 11 % of isoprenaline. Besides, the Kb in assay [4] is 1000 nM.

`COc1ccc(OCCNCC(O)COc2ccccc2C)cc1` (centres unmarked) [CH3; 4-OCH3, 3-[2-(4-methoxyphenoxy)-ethylamino]-1-o-methylphenoxy-propanol-2]: the values for the ED50 in assay [1] and in assay [2] were 0.5 µmol/kg and 8.2 µmol/kg, respectively. The “Intrinsic activity Δbeats/min” value in assay [3] is on record as 17 beats/min. Moreover, the “Intrinsic activity % of isoprenaline” value in assay [3] is reported as 22 % of isoprenaline. Moreover, in assay [4], the Kb is 1580 nM.

Consider `OCc1ccccc1OCC(O)CNCCOc1ccc(O)cc1` (centres unmarked) [HOCH2; pOH, 3-[2-(4-hydroxyphenoxy)-ethylamino]-1-o-hydroxymethylphenoxy-propanol-2], for which the median effective dose (ED50) worked out at 0.02 µmol/kg in assay [1] and 0.05 µmol/kg in assay [2]. For the same molecule, the “Intrinsic activity Δbeats/min” value in assay [3] is recorded as 17 beats/min. The molecule further showed a Kb in assay [4] of 501 nM.

By ED50 is commonly meant the midpoint of the dose-response relation. The low end stands for greater potency, the high end for weaker potency.
